Target: T1, PTP-1B (Homo sapiens, UniProt P18031)
T1 construct: PTP-1B (purified, 1 mg/mL) as a 1:250 dilution
T1 sequence (P18031 1-321 limits assumed): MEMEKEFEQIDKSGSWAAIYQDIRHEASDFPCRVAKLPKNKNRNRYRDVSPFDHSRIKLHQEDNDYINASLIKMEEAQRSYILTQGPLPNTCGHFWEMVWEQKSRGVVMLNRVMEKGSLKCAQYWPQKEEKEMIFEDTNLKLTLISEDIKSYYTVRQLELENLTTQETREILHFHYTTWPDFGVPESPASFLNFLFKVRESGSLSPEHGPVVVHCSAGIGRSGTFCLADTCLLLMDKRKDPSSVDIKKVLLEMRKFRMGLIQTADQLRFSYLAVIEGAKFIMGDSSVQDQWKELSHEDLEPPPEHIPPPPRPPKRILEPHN
Assay: pNPP tyrosine phosphatase inhibition assay, PTP-1B
Assay type: biochemical
Conditions: pNPP assay, PTP-1B; read-out: Activity Class (IC50 ranges)
How it was run: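 Test compounds were screened at two final levels, 31.3 and 10 µM, against 4 µg/mL purified PTP-1B. The substrate was 10 mM p-nitrophenyl phosphate, with incubation for 10 min at 30°C before a K2CO3 quench. Activity was taken from A405.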

IC50 [nM] | Molecule
250 to 499 | COc1ccccc1S(=O)(=O)N(Cc1cccc(-c2ccc(S(C)(=O)=O)cc2)c1)Cc1ccc(C(F)(F)P(=O)(O)O)c(Cl)c1 [Compound 143, [(2-Chloro-4-{[(4′-methanesulfonyl-biphenyl-3-ylmethyl)-(2-methoxy-benzenesulfonyl)-amino]-methyl}-phenyl)-difluoro-methyl]-phosphonic acid]
250 to 499 | NC(=O)c1ccccc1S(=O)(=O)N(Cc1ccccc1)Cc1ccc(C(F)(F)P(=O)(O)O)c(Cl)c1 [Compound 192, [(4-{[Benzyl-(2-carbamoyl-benzenesulfonyl)-amino]-methyl}-2-chloro-phenyl)-difluoromethyl]-phosphonic acid]
100 to 249 | N#Cc1cccc(-c2ccc(CN(Cc3ccc(C(F)(F)P(=O)(O)O)c(Cl)c3)S(=O)(=O)c3ccccc3Cl)cc2)c1 [Compound 163, [(2-Chloro-4-{[(2-chloro-benzenesulfonyl)-(3′-cyano-biphenyl-4-ylmethyl)-amino]-methyl}-phenyl)-difluoro-methyl]-phosphonic acid]
< 99 | COc1ccccc1S(=O)(=O)N(Cc1ccc(-c2ccc(-c3nn[nH]n3)cc2)cc1)Cc1ccc(C(F)(F)P(=O)(O)O)c(Cl)c1 [Compound 159, {[2-Chloro-4-({(2-methoxy-benzenesulfonyl)-[4′-(2H-tetrazol-5-yl)-biphenyl-4-ylmethyl]-amino}-methyl)-phenyl]-difluoro-methyl}-phosphonic acid]
250 to 499 | COc1ccccc1S(=O)(=O)N(Cc1cccc(-c2cccc(S(C)(=O)=O)c2)c1)Cc1ccc(C(F)(F)P(=O)(O)O)c(Cl)c1 [Compound 142, [(2-Chloro-4-{[(3′-methanesulfonyl-biphenyl-3-ylmethyl)-(2-methoxy-benzenesulfonyl)-amino]-methyl}-phenyl)-difluoro-methyl]-phosphonic acid]
250 to 499 | CCCc1cc(-c2ccc(CN(Cc3ccc(C(F)(F)P(=O)(O)O)c(Cl)c3)S(=O)(=O)c3ccccc3OC)cc2)cc(C(=O)OC)c1O [Compound 160, 4′-{[[3-Chloro-4-(difluoro-phosphono-methyl)-benzyl]-(2-methoxy-benzenesulfonyl)-amino]-methyl}-4-hydroxy-5-propyl-biphenyl-3-carboxylic acid methyl ester]
> 25000 | COc1ccccc1S(=O)(=O)N(Cc1ccc(C#N)cc1)Cc1ccc(C=CC(=O)O)c(Br)c1 [Compound 120, 3-{2-Bromo-4-[N-(4-cyanobenzyl)-N-(2-methoxy-benzenesulfonyl)aminomethyl]-phenyl}-acrylic acid]
> 25000 | O=C(O)c1ccc(CN(Cc2ccc(C(=O)O)cc2Br)S(=O)(=O)c2ccccc2)cc1 [Compound 80, 4-([Benzenesulfonyl-(2-bromo-4-carboxybenzyl)-amino]-methyl)-benzoic acid]
< 99 | COc1ccccc1S(=O)(=O)N(Cc1ccc(-c2cccc(-c3nn[nH]n3)c2)cc1)Cc1ccc(C(F)(F)P(=O)(O)O)c(Cl)c1 [Compound 47, {[2-Chloro-4-({(2-methoxy-benzenesulfonyl)-[3′-(2H-tetrazol-5-yl)-biphenyl-4-ylmethyl]-amino}-methyl)-phenyl]-difluoro-methyl}-phosphonic acid]
> 25000 | COc1ccccc1S(=O)(=O)N(Cc1ccc(C=CC(=O)O)cc1)Cc1ccc(C=CC(=O)O)cc1 [Compound 132, 3-(4-{[[4-(2-Carboxy-vinyl)-benzyl]-(2-methoxy-benzenesulfonyl)-amino]-methyl}-phenyl)-acrylic acid]
> 25000 | O=[N+]([O-])c1ccc(CN(Cc2ccc(Cl)c(Cl)c2)S(=O)(=O)c2ccccc2Cl)cc1 [Compound 81, 2-Chloro-N-(3,4-dichloro-benzyl)-N-(4-nitro-benzyl)-benzenesulfonamide]
< 99 | CCOc1cccc(-c2ccccc2CN(Cc2ccc(C(F)(F)P(=O)(O)O)c(Cl)c2)S(=O)(=O)c2ccccc2OC)c1 [Compound 217, [(2-Chloro-4-{[(3′-ethoxy-biphenyl-2-ylmethyl)-(2-methoxy-benzenesulfonyl)-amino]-methyl}-phenyl)-difluoro-methyl]-phosphonic acid]
250 to 499 | O=P(O)(O)C(F)(F)c1ccc(CN(Cc2ccc(C(F)(F)P(=O)(O)O)cc2)S(=O)(=O)c2cccc(Oc3ccccc3)c2)cc1 [Compound 72, [(4-{[[4-(Difluoro-phosphono-methyl)-benzyl]-(3-phenoxy-benzenesulfonyl)-amino]-methyl}-phenyl)-difluoro-methyl]-phosphonic acid]
> 25000 | COc1ccccc1S(=O)(=O)N(Cc1ccc(N(CC(=O)O)C(=O)C(=O)O)cc1)Cc1ccc(S(C)(=O)=O)cc1 [Compound 136, N-Carboxymethyl-N-(4-{[(4-methanesulfonyl-benzyl)-(2-methoxy-benzenesulfonyl)-amino]-methyl}-phenyl)-oxalamic acid]
< 99 | O=P(O)(O)C(F)(F)c1ccc(CN(Cc2ccc(-c3cccc(-c4nn[nH]n4)c3)cc2)S(=O)(=O)c2ccc3ccccc3c2)cc1Cl [Compound 158, {[2-Chloro-4-({(naphthalene-2-sulfonyl)-[3′-(2H-tetrazol-5-yl)-biphenyl-4-ylmethyl]-amino}-methyl)-phenyl]-difluoro-methyl}-phosphonic acid]

The remaining lines, values behind:

Molecule | IC50 [nM]
{[4-(difluorophosphonomethyl)-3-chlorophenyl]methyl}(cycloheptylmethyl)[(2-methoxyphenyl)sulfonyl]amine [Compound 202] | 100 to 249
COc1ccccc1S(=O)(=O)N(Cc1ccc(-c2cccc(C#N)c2)cc1)Cc1ccc(C(F)(F)P(=O)(O)OC)c(Cl)c1 [Compound 165, [(2-Chloro-4-{[(3′-cyano-biphenyl-4-ylmethyl)-(2-methoxy-benzenesulfonyl)-amino]-methyl}-phenyl)-difluoro-methyl]-phosphonic acid monomethyl ester] | 2500 to 25000
{[4-(difluorophosphonomethyl)-3-chlorophenyl]methyl}{[2-(4-methoxyphenyl)phenyl]methyl}[(2-methoxyphenyl)sulfonyl]amine [Compound 190] | < 99
CS(=O)(=O)c1cccc(-c2ccc(S(=O)(=O)N(Cc3ccc(C#N)cc3)Cc3ccc(C(F)(F)P(=O)(O)O)c(Cl)c3)cc2)c1 [Compound 144, [(2-Chloro-4-{[(4-cyano-benzyl)-(3′-methanesulfonyl-biphenyl-4-sulfonyl)-amino]-methyl}-phenyl)-difluoro-methyl]-phosphonic acid] | 250 to 499
[(2-Chloro-4-{[(4′-cyano-biphenyl-4-ylmethyl)-(2-methoxy-benzenesulfonyl)-amino]-methyl}-phenyl)-difluoro-methyl]-phosphonic acid [Compound 157] | 100 to 249
COc1ccccc1S(=O)(=O)N(CCc1ccc(-c2cccc(C(=O)O)c2)cc1)Cc1ccc(C(F)(F)P(=O)(O)O)c(Cl)c1 [Compound 188, 4′-{2-[[3-Chloro-4-(difluoro-phosphono-methyl)-benzyl]-(2-methoxy-benzenesulfonyl)-amino]-ethyl}-biphenyl-3-carboxylic acid] | 250 to 499
COc1ccccc1S(=O)(=O)N(Cc1ccc(N(CC(C)C(=O)O)C(=O)C(=O)O)cc1)Cc1ccc(N(CC(C)C(=O)O)C(=O)C(=O)O)cc1 (centres unmarked) [Compound 223, 3-[(4-{[{4-[(2-Carboxy-propyl)-oxalyl-amino]-benzyl}-(2-methoxy-benzenesulfonyl)-amino]-methyl}-phenyl)-oxalyl-amino]-2-methyl-propionic acid] | > 25000
5-{4-[({[4-(difluorophosphonomethyl)phenyl]methyl}[(2-methoxyphenyl)sulfonyl]amino)methyl]phenyl}-2-hydroxybenzoic acid [Compound 210] | 250 to 499
COC(=O)c1cccc(-c2cccc(CCN(Cc3ccc(C(F)(F)P(=O)(O)O)c(Cl)c3)S(=O)(=O)c3ccccc3OC)c2)c1 [Compound 185, 3′-{2-[[3-Chloro-4-(difluoro-phosphono-methyl)-benzyl]-(2-methoxy-benzenesulfonyl)-amino]-ethyl}-biphenyl-3-carboxylic acid methyl ester] | 250 to 499
COc1ccccc1S(=O)(=O)N(Cc1ccc(-c2ccc(S(C)(=O)=O)cc2)cc1)Cc1ccc(C(F)(F)P(=O)(O)O)c(Cl)c1 [Compound 147, [(2-Chloro-4-{[(4′-methanesulfonyl-biphenyl-4-ylmethyl)-(2-methoxy-benzenesulfonyl)-amino]-methyl}-phenyl)-difluoro-methyl]-phosphonic acid] | 100 to 249
3-[(4-{[(2-Methoxy-benzenesulfonyl)-naphthalen-1-ylmethyl-amino]-methyl}-phenyl)-oxalyl-amino]-butyric acid [Compound 225] | > 25000
NC(=O)c1cccc(S(=O)(=O)N(Cc2ccc(C(F)(F)P(=O)(O)O)c(Cl)c2)Cc2ccccc2-c2ccccc2)c1 [Compound 214, [(4-{[Biphenyl-2-ylmethyl-(3-carbamoyl-benzenesulfonyl)-amino]-methyl}-2-chloro-phenyl)-difluoro-methyl]-phosphonic acid] | 250 to 499
COc1ccccc1S(=O)(=O)N(Cc1ccc(C#N)cc1)Cc1ccc(C(F)(F)P(=O)(O)O)c(Br)c1 [Compound 105, [(2-Bromo-4-{[(4-cyano-benzyl)-(2-methoxybenzenesulfonyl)-amino]-methyl}-phenyl)-difluoro-methyl]-phosphonic acid] | 100 to 249
COc1ccccc1S(=O)(=O)N(Cc1ccc(Cl)c(Cl)c1)Cc1ccc(C(F)(F)P(=O)(O)O)c(Cl)c1 [Compound 146, [(2-Chloro-4-{[(3,4-dichloro-benzyl)-(2-methoxy-benzenesulfonyl)-amino]-methyl}-phenyl)-difluoro-methyl]-phosphonic acid] | 250 to 499
